Columns and labels:
[1] = biological target: T1, KpAcrB (K. pneumoniae AcrB multidrug efflux pump) (Klebsiella pneumoniae, UniProt W9B4M6); experiment: microscale thermophoresis (label-free); cryo-EM structure of the complex also solved; assay type: binding
T1 construct: full-length, 1,048 residues (model 1-1033), N-terminal 6xHis tag, pET15b, expressed in E. coli BL21(DE3) delta-acrB; homotrimer; in DDM for MST, in MSP1E3D1 lipid nanodiscs for cryo-EM

[2] = biological target: Klebsiella pneumoniae AcrB multidrug efflux pump (Klebsiella pneumoniae) (UniProt W9B4M6); experiment: cryo-EM structure; single-particle cryo-EM of 10 uM KpAcrB in lipidic nanodiscs (MSP 1E3D1, E. coli total extract lipid; 20 mM Tris-HCl pH 7.5, 100 mM NaCl); apo, and after 2 h with 500 uM erythromycin

Compound | Kd [1] [µM] | stoichiometry N [2]
CC[C@H]1OC(=O)[C@H](C)[C@@H](O[C@H]2C[C@@](C)(OC)[C@@H](O)[C@H](C)O2)[C@H](C)[C@@H](O[C@@H]2O[C@H](C)C[C@H](N(C)C)[C@H]2O)[C@](C)(O)C[C@@H](C)C(=O)[C@H](C)[C@@H](O)[C@]1(C)O [erythromycin] | 14.4 ± 2.6 | 
Klebsiella pneumoniae AcrB multidrug efflux pump (from UniProt W9B4M6 1-1048) (natural protein) |  | 3

— publication PMC10294659, “Cryo-EM Structures of the Klebsiella pneumoniae AcrB Multidrug Efflux Pump” (mBio, 2023)
